Source: the NIST ThermoML archive (doi:10.1016/j.jct.2004.12.014)

Experiments:
[1] = 318.15 K; 101.33 kPa; Liquid
[2] = refractive index (Na D-line) (dimensionless); settings: 318.15 K; 101.33 kPa; Liquid; Standard Abbe refractometry
[3] = xn = mol fraction of the nth substance listed; settings: 318.15 K, 101 kPa, Liquid
[4] = excess molar enthalpy (molar enthalpy of mixing); xn = mol fraction of the nth substance listed; settings: 318.15 K, 101 kPa, Liquid

CCCOC(=O)CC [propyl propanoate]
Settings | mass density [kg/m3] | refractive index
[1] | 854.57 | –
[2] | – | 1.3809

CCC(=O)OC [methyl propanoate]
Settings | mass density [kg/m3] | refractive index
[1] | 884.6 | –
[2] | – | 1.3641

CCCCCOC(=O)CC [pentyl propanoate]
Settings | mass density [kg/m3]
[1] | 848.98

CCCOC(=O)CC [propyl propanoate] + CCCCCCCCC
Settings | excess molar enthalpy [kcal/mol] | excess molar volume [m3/mol]
[3], x1 = 0.0358 | – | 1.43e-07
[3], x1 = 0.0804 | – | 2.79e-07
[3], x1 = 0.1547 | – | 4.77e-07
[3], x1 = 0.2247 | – | 6.11e-07
[3], x1 = 0.2939 | – | 7.16e-07
[3], x1 = 0.3601 | – | 7.97e-07
[3], x1 = 0.4243 | – | 8.28e-07
[3], x1 = 0.4879 | – | 8.32e-07
[3], x1 = 0.5463 | – | 8.3e-07
[3], x1 = 0.6022 | – | 7.94e-07
[3], x1 = 0.6569 | – | 7.54e-07
[3], x1 = 0.7113 | – | 6.79e-07
[3], x1 = 0.7635 | – | 6.03e-07
[3], x1 = 0.8139 | – | 4.89e-07
[3], x1 = 0.8623 | – | 4.1e-07
[3], x1 = 0.9092 | – | 3.02e-07
[3], x1 = 0.9537 | – | 1.55e-07
[4], x1 = 0.0729 | 0.0736 | –
[4], x1 = 0.1505 | 0.13 | –
[4], x1 = 0.2274 | 0.179 | –
[4], x1 = 0.3035 | 0.216 | –
[4], x1 = 0.3733 | 0.239 | –
[4], x1 = 0.4372 | 0.25 | –
[4], x1 = 0.4858 | 0.252 | –
[4], x1 = 0.5248 | 0.252 | –
[4], x1 = 0.5688 | 0.248 | –
[4], x1 = 0.6152 | 0.239 | –
[4], x1 = 0.6667 | 0.223 | –
[4], x1 = 0.7215 | 0.198 | –
[4], x1 = 0.7776 | 0.169 | –
[4], x1 = 0.8356 | 0.135 | –
[4], x1 = 0.8948 | 0.0929 | –
[4], x1 = 0.951 | 0.0476 | –

CCCCCCCCCCCCCCCCC [heptadecane] + CCCCOC(=O)CC
Settings | excess molar enthalpy [kcal/mol] | excess molar volume [m3/mol]
[3], x2 = 0.1135 | – | 3.06e-07
[3], x2 = 0.2186 | – | 5.48e-07
[3], x2 = 0.3079 | – | 7.39e-07
[3], x2 = 0.3903 | – | 8.52e-07
[3], x2 = 0.4652 | – | 8.98e-07
[3], x2 = 0.5331 | – | 9.21e-07
[3], x2 = 0.5915 | – | 9.16e-07
[3], x2 = 0.6482 | – | 8.91e-07
[3], x2 = 0.7001 | – | 8.35e-07
[3], x2 = 0.7497 | – | 7.85e-07
[3], x2 = 0.7938 | – | 6.9e-07
[3], x2 = 0.8335 | – | 6.09e-07
[3], x2 = 0.8704 | – | 5.1e-07
[3], x2 = 0.907 | – | 4.01e-07
[3], x2 = 0.9407 | – | 2.87e-07
[3], x2 = 0.9701 | – | 1.43e-07
[4], x2 = 0.0939 | 0.101 | –
[4], x2 = 0.1935 | 0.175 | –
[4], x2 = 0.2953 | 0.241 | –
[4], x2 = 0.3647 | 0.278 | –
[4], x2 = 0.4302 | 0.3 | –
[4], x2 = 0.4836 | 0.311 | –
[4], x2 = 0.5295 | 0.314 | –
[4], x2 = 0.5642 | 0.313 | –
[4], x2 = 0.5727 | 0.312 | –
[4], x2 = 0.5964 | 0.31 | –
[4], x2 = 0.6386 | 0.298 | –
[4], x2 = 0.6808 | 0.284 | –
[4], x2 = 0.7248 | 0.264 | –
[4], x2 = 0.7703 | 0.236 | –
[4], x2 = 0.8172 | 0.202 | –
[4], x2 = 0.8639 | 0.164 | –
[4], x2 = 0.911 | 0.116 | –
[4], x2 = 0.9568 | 0.0625 | –

CCCCCCCCCCCCCCC [pentadecane] + CCOC(=O)CC
Settings | excess molar enthalpy [kcal/mol] | excess molar volume [m3/mol]
[3], x2 = 0.0586 | – | 2.35e-07
[3], x2 = 0.1287 | – | 4.67e-07
[3], x2 = 0.2483 | – | 8.47e-07
[3], x2 = 0.3372 | – | 1.053e-06
[3], x2 = 0.4269 | – | 1.184e-06
[3], x2 = 0.502 | – | 1.246e-06
[3], x2 = 0.5673 | – | 1.252e-06
[3], x2 = 0.6288 | – | 1.223e-06
[3], x2 = 0.6845 | – | 1.156e-06
[3], x2 = 0.7304 | – | 1.087e-06
[3], x2 = 0.7744 | – | 9.92e-07
[3], x2 = 0.8148 | – | 8.88e-07
[3], x2 = 0.8537 | – | 7.69e-07
[3], x2 = 0.8864 | – | 6.38e-07
[3], x2 = 0.919 | – | 5.21e-07
[3], x2 = 0.9481 | – | 3.55e-07
[3], x2 = 0.9742 | – | 1.89e-07
[4], x2 = 0.1045 | 0.128 | –
[4], x2 = 0.2122 | 0.227 | –
[4], x2 = 0.3158 | 0.312 | –
[4], x2 = 0.4055 | 0.364 | –
[4], x2 = 0.4848 | 0.392 | –
[4], x2 = 0.5368 | 0.399 | –
[4], x2 = 0.5811 | 0.398 | –
[4], x2 = 0.6068 | 0.393 | –
[4], x2 = 0.6156 | 0.391 | –
[4], x2 = 0.6409 | 0.382 | –
[4], x2 = 0.6796 | 0.366 | –
[4], x2 = 0.7199 | 0.341 | –
[4], x2 = 0.761 | 0.313 | –
[4], x2 = 0.8036 | 0.273 | –
[4], x2 = 0.846 | 0.229 | –
[4], x2 = 0.8889 | 0.181 | –
[4], x2 = 0.9311 | 0.124 | –
[4], x2 = 0.9692 | 0.0613 | –
